# Values joined by “and” are separate entries in the source; they are usually repeats but may differ in a detail not shown here. Identical values can stand only once. Like-named read-outs stand apart in the source and are kept apart here.
# Test system: functional microbial subcommunity (inoculum 2L-245 from upflow reactor)
# Assay: Stimulation of methane production: batch cultures with additive/stimulant, with or without coal, headspace methane by gas chromatography
# Type: cell-based
# Protocol: The availability of an inoculum of a functional microbial subcommunity capable of producing methane from coal in vitro prompted laboratory experiments where various stimulants were tested for their effect on methane production. […] The experiments were conducted at three different levels of additives (0.5×, 1× and 2×): additives (stimulants) were added in the following three concentrations. […] DMY media: DM media composition in milli-Q water is made as described above with the addition of 0.5 g/L yeast extract. DMSC media: DM media in milli-Q water is made as described above with the addition of 100 g/L sterile, anaerobic, sub-bituminous coal from the San Juan Basin. DMSCY media: DM media in milli-Q water is made as described above with the addition of 100 g/L sterile, anaerobic, sub-bituminous coal from the San Juan Basin and 0.5 g/L yeast extract. The coal used in these experiments originated from the San Juan Basin (BHP Billiton, Tex.). […] Each stimulant was tested in the presence or absence of coal. The experiments were conducted at three different concentrations of additives (0.5× (low), 1× (medium), and 2× (high)) as described above. Each sample type was conducted in 4 replicates. […] Control sample types were media alone, media plus coal, media plus yeast extract and media plus coal and yeast extract. At each time point, headspace measurements were taken using gas chromatography (microGC […], Agilent Technologies, Inc.). […] Each experiment was performed in quadruplicate. Methane at time 0 was assumed to be 0%.
# [1] = DMSCY (coal), 5.0 μM MnCl2, week 3
# [2] = DMSCY (coal), 5.0 μM MnCl2, week 5
# [3] = DMSCY (coal), 10 μM MnCl2, week 1
# [4] = DMSCY (coal), 10 μM MnCl2, week 3
# [5] = DMSCY (coal), 10 μM MnCl2, week 5
# [6] = DMY (no coal), 5.0 μM MnCl2, week 1
# [7] = DMY (no coal), 5.0 μM MnCl2, week 3
# [8] = DMY (no coal), 5.0 μM MnCl2, week 5
# [9] = DMY (no coal), 10 μM MnCl2, week 1
# [10] = DMY (no coal), 10 μM MnCl2, week 3
# [11] = DMY (no coal), 10 μM MnCl2, week 5
# [12] = DMSCY (coal), 5 mM NH4Cl, week 1
# [13] = DMSCY (coal), 5 mM NH4Cl, week 3
# [14] = DMSCY (coal), 5 mM NH4Cl, week 5
# [15] = DMSCY (coal), 10 mM NH4Cl, week 1
# [16] = DMSCY (coal), 10 mM NH4Cl, week 3
# [17] = DMSCY (coal), 10 mM NH4Cl, week 5
# [18] = DMSCY (coal), 20 mM NH4Cl, week 1
# [19] = DMSCY (coal), 20 mM NH4Cl, week 5
# [20] = DMY (no coal), 5 mM NH4Cl, week 1
# [21] = DMY (no coal), 5 mM NH4Cl, week 3
# [22] = DMY (no coal), 5 mM NH4Cl, week 5
# [23] = DMY (no coal), 10 mM NH4Cl, week 1
# [24] = DMY (no coal), 20 mM NH4Cl, week 1
# [25] = DMY (no coal), 20 mM NH4Cl, week 3
# [26] = DMY (no coal), 20 mM NH4Cl, week 5
# [27] = DMSCY (coal), 5.0 μM Na2MoO4, week 1
# [28] = DMSCY (coal), 5.0 μM Na2MoO4, week 3
# [29] = DMSCY (coal), 5.0 μM Na2MoO4, week 5
# [30] = DMSCY (coal), 10 μM Na2MoO4, week 1
# [31] = DMSCY (coal), 10 μM Na2MoO4, week 3
# [32] = DMSCY (coal), 10 μM Na2MoO4, week 5
# [33] = DMY (no coal), 5.0 μM Na2MoO4, week 1
# [34] = DMY (no coal), 5.0 μM Na2MoO4, week 3
# [35] = DMY (no coal), 5.0 μM Na2MoO4, week 5
# [36] = DMY (no coal), 10 μM Na2MoO4, week 1
# [37] = DMY (no coal), 10 μM Na2MoO4, week 3
# [38] = DMY (no coal), 10 μM Na2MoO4, week 5
# [39] = DMSCY (coal), 125 μM Na2SO3, week 1
# [40] = DMSCY (coal), 125 μM Na2SO3, week 3
# [41] = DMSCY (coal), 125 μM Na2SO3, week 5
# [42] = DMSCY (coal), 250 μM Na2SO3, week 1
# [43] = DMSCY (coal), 250 μM Na2SO3, week 3
# [44] = DMSCY (coal), 250 μM Na2SO3, week 5
# [45] = DMSCY (coal), 500 μM Na2SO3, week 1
# [46] = DMSCY (coal), 500 μM Na2SO3, week 3
# [47] = DMSCY (coal), 500 μM Na2SO3, week 5
# [48] = DMY (no coal), 125 μM Na2SO3, week 1
# [49] = DMY (no coal), 125 μM Na2SO3, week 3
# [50] = DMY (no coal), 125 μM Na2SO3, week 5
# [51] = DMY (no coal), 250 μM Na2SO3, week 1
# [52] = DMY (no coal), 250 μM Na2SO3, week 3
# [53] = DMY (no coal), 250 μM Na2SO3, week 5
# [54] = DMY (no coal), 500 μM Na2SO3, week 1
# [55] = DMY (no coal), 500 μM Na2SO3, week 3
# [56] = DMY (no coal), 500 μM Na2SO3, week 5
compound,measurement,setting,value
manganese chloride [MnCl2],methane production (Average),"DMSCY (coal), 5.0 μM MnCl2, week 1",0.44
same,methane production (Average),[1],1.56
same,methane production (RepA-Rep D),[1],1.51 and 1.55 and 1.53 and 1.64
same,methane production (Average),[2],1.82
same,methane production (RepA-Rep D),[2],1.94 and 1.81 and 1.70 and 1.85
same,methane production (Average),[3],0.42
same,methane production (RepA-Rep D),[3],0.44 and 0.41 and 0.43
same,methane production (Average),[4],1.46
same,methane production (RepA-Rep D),[4],1.45 and 1.49 and 1.43 and 1.48
same,methane production (Average),[5],1.72
same,methane production (RepA-Rep D),[5],1.63 and 1.82 and 1.71 and 1.70
same,methane production (Average),[6],0.34
same,methane production (RepA-Rep D),[6],0.34 and 0.33 and 0.36
same,methane production (Average),[7],0.92
same,methane production (RepA-Rep D),[7],0.92 and 0.90 and 0.94
same,methane production (Average),[8],0.87
same,methane production (RepA-Rep D),[8],0.89 and 0.86 and 0.85 and 0.88
same,methane production (Average),[9],0.36
same,methane production (RepA-Rep D),[9],0.39 and 0.38 and 0.35
same,methane production (Average),[10],1.02
same,methane production (RepA-Rep D),[10],1.00 and 1.05 and 1.04 and 1.01
same,methane production (Average),[11],0.97
same,methane production (RepA-Rep D),[11],0.89 and 1.03 and 0.96 and 1.01
"Cl.N [NH4Cl, ammonium chloride]",methane production (Average),[12],0.31
same,methane production (RepA-Rep D),[12],0.35 and 0.27 and 0.31 and 0.30
same,methane production (Average),[13],1.11
same,methane production (RepA-Rep D),[13],1.24 and 1.03 and 1.13
same,methane production (Average),[14],1.50
same,methane production (RepA-Rep D),[14],1.67 and 1.41 and 1.48 and 1.43
same,methane production (Average),[15],0.25
same,methane production (RepA-Rep D),[15],0.25 and 0.22 and 0.28
same,methane production (Average),[16],1.30
same,methane production (RepA-Rep D),[16],1.22 and 1.43 and 1.41 and 1.14
same,methane production (Average),[17],2.22
same,methane production (RepA-Rep D),[17],1.98 and 2.70 and 2.67 and 1.54
same,methane production (Average),[18],0.22
same,methane production (RepA-Rep D),[18],0.24 and 0.22 and 0.21
same,methane production (Average),"DMSCY (coal), 20 mM NH4Cl, week 3",1.18
same,methane production (Average),[19],1.46
same,methane production (RepA-Rep D),[19],1.63 and 1.48 and 1.37 and 1.36
same,methane production (Average),[20],0.26
same,methane production (RepA-Rep D),[20],0.26 and 0.27
same,methane production (Average),[21],0.71
same,methane production (RepA-Rep D),[21],0.74 and 0.68 and 0.67
same,methane production (Average),[22],0.66
same,methane production (RepA-Rep D),[22],0.69 and 0.65 and 0.62
same,methane production (Average),[23],0.20
same,methane production (RepA-Rep D),[23],0.22 and 0.21 and 0.15
same,methane production (Average),"DMY (no coal), 10 mM NH4Cl, week 3",0.57
same,methane production (Average),"DMY (no coal), 10 mM NH4Cl, week 5",0.58
same,methane production (Average),[24],0.22
same,methane production (RepA-Rep D),[24],0.23 and 0.22 and 0.21
same,methane production (Average),[25],0.77
same,methane production (RepA-Rep D),[25],0.80 and 0.78 and 0.76
same,methane production (Average),[26],0.78
same,methane production (RepA-Rep D),[26],0.80 and 0.79 and 0.76 and 0.77
same,effect on the production of methane,"intermediate concentration of the stimulant (FIGS. 1A, 1B, 2A)",statistically significant positive effect
same,dependence of methane production on coal,with or without coal,only observed in presence of coal
"[Na+].[Na+].[O]=[Mo](=[O])([O-])[O-] [Na2MoO4, sodium molybdic]",methane production (Average),[27],0.34
same,methane production (RepA-Rep D),[27],0.39 and 0.28 and 0.31
same,methane production (Average),[28],1.19
same,methane production (RepA-Rep D),[28],1.13 and 1.09 and 1.14 and 1.40
same,methane production (Average),[29],1.41
same,methane production (RepA-Rep D),[29],1.39 and 1.31 and 1.29 and 1.63
same,methane production (Average),[30],0.44
same,methane production (RepA-Rep D),[30],0.43 and 0.47 and 0.44
same,methane production (Average),[31],1.10
same,methane production (RepA-Rep D),[31],1.03 and 1.15 and 1.14 and 1.07
same,methane production (Average),[32],1.13
same,methane production (RepA-Rep D),[32],1.11 and 1.14 and 1.15 and 1.13
same,methane production (Average),[33],0.29
same,methane production (RepA-Rep D),[33],0.25 and 0.27 and 0.30 and 0.33
same,methane production (Average),[34],0.83
same,methane production (RepA-Rep D),[34],0.77 and 0.85 and 0.79 and 0.91
same,methane production (Average),[35],0.79
same,methane production (RepA-Rep D),[35],0.76 and 0.78 and 0.74 and 0.87
same,methane production (Average),[36],0.29
same,methane production (RepA-Rep D),[36],0.30 and 0.26 and 0.32
same,methane production (Average),[37],0.82
same,methane production (RepA-Rep D),[37],0.85 and 0.71 and 0.81 and 0.90
same,methane production (Average),[38],0.77
same,methane production (RepA-Rep D),[38],0.77 and 0.72 and 0.74 and 0.83
same,correlation of methane production with molybdate added to the cultures,FIG. 3B,negative correlation
same,difference of effects with or without coal,"molybdate, P=0.063",not statistically significantly different
"O=S([O-])([O-])=S.[Na+].[Na+] [Na2S2O3, sodium thiosulfate]",dependence of methane production on coal,,only observed in the presence of coal
same,effect on the production of methane,,statistically significant positive effect
"O=S([O-])[O-].[Na+].[Na+] [Na2SO3, sodium sulfite]",methane production (Average),[39],0.27
same,methane production (RepA-Rep D),[39],0.26 and 0.24 and 0.25 and 0.32
same,methane production (Average),[40],1.02
same,methane production (RepA-Rep D),[40],1.04 and 0.97 and 0.99 and 1.06
same,methane production (Average),[41],1.25
same,methane production (RepA-Rep D),[41],1.21 and 1.22 and 1.25 and 1.31
same,methane production (Average),[42],20
same,methane production (RepA-Rep D),[42],0.23 and 0.18 and 0.19 and 0.20
same,methane production (Average),[43],1.07
same,methane production (RepA-Rep D),[43],1.04 and 1.02 and 1.06 and 1.18
same,methane production (Average),[44],1.42
same,methane production (RepA-Rep D),[44],1.26 and 1.24 and 1.45 and 1.74
same,methane production (Average),[45],0.14
same,methane production (RepA-Rep D),[45],0.14 and 0.13 and 0.15
same,methane production (Average),[46],1.04
same,methane production (RepA-Rep D),[46],1.01 and 0.98 and 1.07 and 1.04
same,methane production (Average),[47],1.35
same,methane production (RepA-Rep D),[47],1.34 and 1.26 and 1.37 and 1.41
same,methane production (Average),[48],0.21
same,methane production (RepA-Rep D),[48],0.20 and 0.21 and 0.22
same,methane production (Average),[49],0.71
same,methane production (RepA-Rep D),[49],0.71 and 0.68 and 0.69 and 0.75
same,methane production (Average),[50],0.68
same,methane production (RepA-Rep D),[50],0.66 and 0.69 and 0.71
same,methane production (Average),[51],0.14
same,methane production (RepA-Rep D),[51],0.14 and 0.15 and 0.13
same,methane production (Average),[52],0.67
same,methane production (RepA-Rep D),[52],0.67 and 0.63 and 0.65 and 0.72
same,methane production (Average),[53],0.62
same,methane production (RepA-Rep D),[53],0.62 and 0.59 and 0.65
same,methane production (Average),[54],0.09
same,methane production (RepA-Rep D),[54],0.09 and 0.08 and 0.10
same,methane production (Average),[55],0.68
same,methane production (RepA-Rep D),[55],0.71 and 0.64 and 0.74
same,methane production (Average),[56],0.74
same,methane production (RepA-Rep D),[56],0.83 and 0.68 and 0.76
